target: T1, BRD9 (Homo sapiens, UniProt Q9H8M2); assay: HiBiT BRD9 degradation assay in 293T.166 (BRD9-HiBiT) cells; format: cell-based; set-up: endogenously expressing BRD9 with HiBiT fusion tag via CRISPR; host or cells: 293T.166 (BRD9-HiBiT), also expressing LgBiT ectopically; settings: Table 1; 293T.166 cells, 2.0 hours; class symbols; read-out: HiBiT-Degradation 293T.166 BRD9 2.0 hours (DC50)
T1 sequence (Q9H8M2 1-597): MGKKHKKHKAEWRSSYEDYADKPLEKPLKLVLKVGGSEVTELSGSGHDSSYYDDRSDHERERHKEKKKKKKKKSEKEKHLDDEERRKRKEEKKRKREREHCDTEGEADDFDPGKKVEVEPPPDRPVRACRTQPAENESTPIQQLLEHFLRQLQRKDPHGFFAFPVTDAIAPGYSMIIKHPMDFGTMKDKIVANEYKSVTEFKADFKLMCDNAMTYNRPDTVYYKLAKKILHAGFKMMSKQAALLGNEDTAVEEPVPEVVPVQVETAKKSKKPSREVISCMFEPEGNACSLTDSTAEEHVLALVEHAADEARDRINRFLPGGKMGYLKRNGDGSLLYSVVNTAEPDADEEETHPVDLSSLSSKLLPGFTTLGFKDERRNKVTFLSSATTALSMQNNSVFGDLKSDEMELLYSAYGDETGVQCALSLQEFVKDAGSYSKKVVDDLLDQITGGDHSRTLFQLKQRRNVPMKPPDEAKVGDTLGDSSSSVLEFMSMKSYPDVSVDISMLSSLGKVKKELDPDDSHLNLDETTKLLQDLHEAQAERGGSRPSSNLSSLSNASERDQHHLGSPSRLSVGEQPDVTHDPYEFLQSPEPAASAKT
Procedure, shortened: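 Luminescence from the Nano-Glo HiBiT lytic reagent quantified BRD9 loss after compounds (top 10 μM, half-log, 11 points, duplicates) were incubated 2 h at 37° C. with 10,000 293T.166 BRD9-HiBiT/LgBiT cells per well, with controls lacking compound or lacking reagent.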

DC50 [nM]	SMILES
100 to 500	COc1cc(-c2cn(C)c(=O)c3[nH]ncc23)cc(OC)c1CNC1CN(CC(=O)N2CCC(c3ccc(NC4CCC(=O)NC4=O)cc3)CC2)C1 (stereo not drawn) [Compound 38]
< 100	COc1cc(-c2cn(C)c(=O)c3cnccc23)cc(Cl)c1CN1CCC(C2CCN(c3ccc(NC4CCC(=O)NC4=O)cc3F)CC2)C(F)(F)C1 (stereo not drawn) [Compound 199]
< 100	COc1cc(-c2cn(C)c(=O)c3cnccc23)cc(OC)c1CN1CCc2c(CC3CCN(c4ccc(NC5CCC(=O)NC5=O)cc4C(F)(F)F)CC3)cccc2C1 (stereo not drawn) [Compound 237]
< 100	CN(C(=O)N1CCC(c2ccc(NC3CCC(=O)NC3=O)cc2)CC1)C1CCN(Cc2ccc(-c3cn(C)c(=O)c4cnccc34)cc2OC(F)(F)F)CC1 (stereo not drawn) [Compound 122]
< 100	COc1cc(-c2cn(C)c(=O)c3ccccc23)cc(OC)c1CN1CCN(C(=O)CN2CCC(c3ccc(NC4CCC(=O)NC4=O)cc3)CC2)CC1 (stereo not drawn) [Compound 28]
< 100	CN(C(=O)N1CCC(c2ccc(NC3CCC(=O)NC3=O)cc2)CC1)C1CCN(Cc2ccc(-c3cn(C)c(=O)c4ccccc34)cc2OC(F)(F)F)CC1 (stereo not drawn) [Compound 113]
< 100	COc1cc(-c2cn(C)c(=O)c3cnccc23)cc(Cl)c1CN1CCC(CC(=O)N2CCC(c3ccc(NC4CCC(=O)NC4=O)cc3)CC2)CC1 (stereo not drawn) [Compound 44]
< 100	COc1cc(-c2cn(C)c(=O)c(C)c2C)cc(Cl)c1CN1CCC(N2CCN(c3ccc(NC4CCC(=O)NC4=O)nc3)CC2)C(F)(F)C1 (stereo not drawn) [Compound 196]
< 100	COc1cc(-c2cn(C)c(=O)c3cnccc23)cc(Cl)c1C(=O)N1CCC(CCC2CCN(c3ccc(NC4CCC(=O)NC4=O)cc3C(F)(F)F)CC2)CC1 (stereo not drawn) [Compound 242]
< 100	COc1cc(-c2cn(C)c(=O)c(C)c2C)cc(Cl)c1C(=O)N1CCC(N2CCC(c3ccc(NC4CCC(=O)NC4=O)cc3)C(F)(F)C2)CC1 (stereo not drawn) [Compound 229]
< 100	CCOc1cc(-c2cn(C)c(=O)c3[nH]ncc23)c(OC)cc1CN1CCN(C(=O)CN2CCC(c3ccc(NC4CCC(=O)NC4=O)cc3)CC2)CC1 (stereo not drawn) [Compound 22]
< 100	COc1cc(-c2cn(C)c(=O)c3cnccc23)cc(OC)c1CN1CCC(N2CCN(c3ccc(NC4CCC(=O)NC4=O)cc3F)CC2)C(F)(F)C1 (stereo not drawn) [Compound 184]
< 100	COc1cc(-c2cn(C)c(=O)c3[nH]ncc23)cc(F)c1CN1CCN(C(=O)NC2CCN(c3ccc(NC4CCC(=O)NC4=O)cc3)CC2)CC1 (stereo not drawn) [Compound 145, N-[1-[4-[(2,6-dioxo-3-piperidyl)amino]phenyl]-4-piperidyl]-4-[[2-fluoro-6-methoxy-4-(6-methyl-7-oxo-1H-pyrazolo[3,4-c]pyridin-4-yl)phenyl]methyl]piperazine-1-carboxamide]
< 100	COc1cc(-c2cn(C)c(=O)c3[nH]ncc23)cc(Cl)c1CN1CCC(C2CCN(c3ccc(NC4CCC(=O)NC4=O)cc3F)CC2)CC1 (stereo not drawn) [Compound 73, 3-[4-[4-[1-[[2-chloro-6-methoxy-4-(6-methyl-7-oxo-1H-pyrazolo[3,4-c]pyridin-4-yl)phenyl]methyl]-4-piperidyl]-1-piperidyl]-3-fluoro-anilino]piperidine-2,6-dione]
< 100	COc1cc(-c2cn(C)c(=O)c3[nH]ncc23)cc(Cl)c1CN1CCc2c(CC3CCN(c4ccc(NC5CCC(=O)NC5=O)cc4F)CC3)cccc2C1 (stereo not drawn) [Compound 105, 3-[4-[4-[[2-[[2-chloro-6-methoxy-4-(6-methyl-7-oxo-1H-pyrazolo[3,4-c]pyridin-4-yl)phenyl]methyl]-3,4-dihydro-1H-isoquinolin-5-yl]methyl]-1-piperidyl]-3-fluoro-anilino]piperidine-2,6-dione]
< 100	Cc1c(-c2ccc(CN3CCC(C4CCN(c5ccc(NC6CCC(=O)NC6=O)cc5F)CC4)CC3)c(OC(F)(F)F)c2)cn(C)c(=O)c1C (stereo not drawn) [Compound 80]
< 100	Cc1c(-c2ccc(C(=O)N3CCC(C4CCN(c5ccc(NC6CCC(=O)NC6=O)cc5F)CC4)CC3)c3[nH]ccc23)cn(C)c(=O)c1C (stereo not drawn) [Compound 217]
< 100	COc1cc(-c2cn(C)c(=O)c3[nH]ncc23)cc(OC)c1CN1CCN(CC(=O)N2CCC(c3ccc(NC4CCC(=O)NC4=O)cc3)CC2)CC1 (stereo not drawn) [Compound 37, 3-[4-[1-[2-[4-[[2,6-dimethoxy-4-(6-methyl-7-oxo-1H-pyrazolo[3,4-c]pyridin-4-yl)phenyl]methyl]piperazin-1-yl]acetyl]-4-piperidyl]anilino]piperidine-2,6-dione]
< 100	CC(c1ccc(-c2cn(C)c(=O)c3cnccc23)cc1OC(F)(F)F)N1CCC(C2CCN(c3ccc(NC4CCC(=O)NC4=O)cc3F)CC2)CC1 (stereo not drawn) [Compound 92]
< 100	COc1cc(-c2cn(C)c(=O)c3cnccc23)cc(Cl)c1CN1CCC(N2CCN(c3ccc(OC4CCC(=O)NC4=O)cc3F)CC2)C(F)(F)C1 (stereo not drawn) [Compound 230, 3-[4-[4-[1-[[2-chloro-6-methoxy-4-(2-methyl-1-oxo-2,7-naphthyridin-4-yl)phenyl]methyl]-3,3-difluoro-4-piperidyl]piperazin-1-yl]-3-fluoro-phenoxy]piperidine-2,6-dione]
< 100	COc1cc(-c2cn(C)c(=O)c3[nH]ncc23)cc(OC)c1CN1CCN(C(=O)CC2CCN(c3ccc(NC4CCC(=O)NC4=O)cc3Cl)CC2)CC1 (stereo not drawn) [Compound 67]
< 100	COc1cc(-c2cn(C)c(=O)c3[nH]ncc23)cc(F)c1CN1CCN(C(=O)CN2CCC(c3ccc(NC4CCC(=O)NC4=O)cc3Cl)CC2)CC1 (stereo not drawn) [Compound 24]
< 100	COc1cc(-c2cn(C)c(=O)c(C)c2C)cc(OC)c1CN1CCC(N2CCN(c3ccc(NC4CCC(=O)NC4=O)nc3)CC2)C(F)(F)C1 (stereo not drawn) [Compound 195]
< 100	COc1cc(-c2cn(C)c(=O)c(C)c2C)cc(OC)c1CN1CCC(N2CCN(c3ccc(NC4CCC(=O)NC4=O)cc3Cl)CC2)C(F)(F)C1 (stereo not drawn) [Compound 187]
< 100	Cc1c(-c2ccc(CN3CCC(C4CCN(c5ccc(NC6CCC(=O)NC6=O)cc5F)CC4)CC3)nc2)cn(C)c(=O)c1C (stereo not drawn) [Compound 81]
< 100	COc1cc(-c2cn(C)c(=O)c3cnccc23)cc(Cl)c1C(=O)N1CCC(C2CCN(c3ccc(NC4CCC(=O)NC4=O)cc3F)CC2)CC1 (stereo not drawn) [Compound 209]
< 100	Cc1c(-c2ccc(C(=O)N3CCC(N(C)C(=O)N4CCC(c5ccc(NC6CCC(=O)NC6=O)cc5F)CC4)CC3)c(OC(F)(F)F)c2)cn(C)c(=O)c1C (stereo not drawn) [Compound 143]
< 100	COc1cc(-c2cn(C)c(=O)c3[nH]ncc23)cc(OC)c1C(=O)N1CCN(C(=O)CN2CCC(c3ccc(NC4CCC(=O)NC4=O)cc3)CC2)CC1 (stereo not drawn) [Compound 46, 3-[4-[1-[2-[4-[2,6-dimethoxy-4-(6-methyl-7-oxo-1H-pyrazolo[3,4-c]pyridin-4-yl)benzoyl]piperazin-1-yl]-2-oxo-ethyl]-4-piperidyl]anilino]piperidine-2,6-dione]

same assay, conditions: Table 2; 293T.166 cells, 2.0 hours; class symbols; read-out: HiBiT-Degradation 293T.166 BRD9 2.0 hours (DC50)

DC50 [nM]	SMILES
< 100	[2H]C([2H])([2H])n1cc(-c2ccc(CN3CCC(C4CCN(c5ccc(NC6CCC(=O)NC6=O)cc5F)CC4)CC3)c(OC(F)(F)F)c2)c2ccncc2c1=O (stereo not drawn) [Compound 252, 3-[3-fluoro-4-[4-[1-[[4-[1-oxo-2-(trideuteriomethyl)-2,7-naphthyridin-4-yl]-2-(trifluoromethoxy)phenyl]methyl]-4-piperidyl]-1-piperidyl]anilino]piperidine-2,6-dione]
< 100	COc1cc(-c2cn(C)c(=O)c3cnccc23)cc(Cl)c1CN1C2CCC1CN(C(=O)CC1CCN(c3ccc(NC4CCC(=O)NC4=O)cc3F)CC1)C2 (stereo not drawn) [Compound 271]
